Values of other authors, collected in PMC11172375, “Preclinical Evaluation of Biodistribution and Toxicity of [^211At]PSMA-5 in Mice and Primates for the Targeted Alpha Therapy against Prostate Cancer” (International Journal of Molecular Sciences, 2024).

Experiments:
[1] = tested on: metastatic castration-resistant prostate cancer; set-up: method as in PMID 34161051; settings: patients with mCRPC previously treated with ARPI and taxane, VISION trial; cited from earlier work
[2] = tested on: metastatic castration-resistant prostate cancer; set-up: method as in doi:10.1200/JCO.2022.40.6_suppl.TPS211; settings: taxane-naïve patients with mCRPC, PSMAfore trial; cited from earlier work
prostate cancer = tested on: prostate cancer; set-up: method as in PMID 27390158, PMID 38218192, PMID 33293081, PMID 33008928, PMID 37247612; settings: patients resistant to beta therapy with [177Lu]PSMA-617; cited from earlier work
[3] = cited from earlier work
[4] = set-up: method as in PMID 27230930; settings: mice treated with 1.5MBq (75MBq/kg); cited from earlier work

O=C([O-])CN1CCN(CC(=O)[O-])CCN(CC(=O)NCC2CCC(C(=O)N[C@@H](Cc3ccc4ccccc4c3)C(=O)NCCCC[C@H](NC(=O)N[C@@H](CCC(=O)O)C(=O)O)C(=O)O)CC2)CCN(CC(=O)[O-])CC1.[177Lu+3] (stereo partly drawn) [[^177Lu]PSMA-617]
overall survival compared to the standard of care [1]: significantly extended overall survival
radiographic progression-free survival compared to ARPI changes [2]: prolong radiographic progression-free survival

O=C([O-])CC[C@H](NC(=O)N[C@@H](CCCCNC(=O)[C@H](Cc1ccc2ccccc2c1)NC(=O)C1CCC(CNC(=O)CN2CCN(CC(=O)[O-])CCN(CC(=O)[O-])CCN(CC(=O)[O-])CC2)CC1)C(=O)[O-])C(=O)[O-].[225Ac].[H+].[H+].[H+] (stereo partly drawn) [[^225Ac]PSMA-617]
efficacy of alpha therapy (prostate cancer): proven effective

[211At-].[Na+] [[^211At]NaAt]
uptake in the thyroid ([3]; 3 h post-administration): 509 %ID/g
thyroid histology ([3]; even in low-dose groups (5 MBq/kg)): thyroid ablation effects

O=C(O)CC[C@H](NC(=O)NC(CCCCNC(=O)c1ccc([211At])cc1)C(=O)O)C(=O)O (stereo partly drawn) [^211At-6, (2S)-2-(3-(1-Carboxy-5-(4-211At-Astatobenzamido)Pentyl)Ureido)-Pentanedioic Acid]
kidney toxicity [4]: late nephropathy with loss of the proximal tubules
